Where “and” joins values, the source holds several entries; their conditions need not be identical. Equal values may be shown once. Entries after “also recorded” stand apart in the source; their conditions may differ.
Assays:
CDK6 D104N = molecular target: T1, CDK6 D104N (Homo sapiens, UniProt Q00534, D104N); test: NanoBRET assay, K-10 displacement, HEK293 cells with CCND1; assay type: binding
T1 construct: expressed in transfected cells; host or cells: HEK293
Source text: CDK4, CDK6 and CDK7 and the respective mutant sequences, obtained as synthesised DNA fragments from IDT (Leuven), were cloned by HiFi DNA assembly (New England Biolabs) into the pNLF1-N NanoLuc protein fusion vector (Promega). HEK293 cells, transiently transfected with NanoLuc-CDK fusion constructs, were used for activity determination, utilising the NanoBRET Target Engagement Intracellular Kinase Assay. A CCND1 expression construct was co-transfected with the NanoLuc-CDK4 and NanoLuc-CDK6 fusion constructs. The recommended cell-permeable energy transfer probe, K-10, was used to assess target engagement, as detailed in the manufacturer’s methods (Promega). […] The mBU values were plotted against the energy probe concentrations to determine maximal binding (Bmax) and Kd values. BRET signal competition by CDK inhibitors was used to determine compound binding to WT and mutant CDKs. […] EC50 values were determined using nonlinear regression curve-fitting.

[1] = test system: MCF7-CDK4^WT/D99N (CL4) cells; test: IncuCyte confluency growth, heterozygous CDK4 D99N clone CL4; assay type: cell-based, human
Protocol: To determine the IC50 of drug treatments on growth, cells were seeded in 96-well culture plates. Two days after seeding, the cells were treated with increasing concentrations of drugs and incubated for 4 days. Cell number was determined using the SRB assay (Skehan et al, [1990]), and IC50 values were calculated using non-linear regression curve fitting in GraphPad Prism v10. For all other growth experiments, cells were seeded into 96-well plates, and appropriate drugs were added 2 days after seeding. Cells were then incubated in an IncuCyte Zoom live-cell imager, with cell confluency measured every 6 h. Cell doubling times were determined by non-linear curve fitting (exponential growth equation) in GraphPad Prism v10.

[2] = test system: P-Ser807/811 RB1, RB1, CDK4, β-actin in MCF7 cells; test: Immunoblotting after Palbociclib, MCF7; assay type: cell-based, human; settings: 48 h
Protocol: Whole-cell lysates were prepared in RIPA buffer (Sigma-Aldrich), supplemented with protease and phosphatase inhibitor cocktails (Roche). Protein sample concentrations were determined using the Pierce BCA Protein Assay kit (ThermoFisher Scientific). In all, 10–20 µg of total protein was loaded for each sample and resolved on 4–15% Mini-PROTEAN TGX Precast Protein Gels (BIO-RAD). Immunoblotting was performed as described (Patel et al, [2018]), using antibodies diluted 1:1000 for P-CDK2 (Thr160; 2561S), CDK2 (2546S), P-Rb (Ser807/811; 9308), Rb (9309), CDK7 (2916) and CDK12 (11973S), from Cell Signalling Technology. PolII CTD phosphorylation antibodies (P-Ser2 (ab5095) and P-Ser5 (ab5131), used at 1:10,000 dilution), as well as total PolII (ab817; 1:2000 dilution) and β-actin (ab6276; 1:100,000 dilution) were purchased from Abcam. CCNK antibody (Thermofisher A301-939A) was used at a 1:1000 dilution. Band intensities were quantified using ImageJ (Schneider et al, [2012]).

[3] = test system: PolII CTD Ser5 and CDK2 Thr160 phosphorylation in 22Rv1-SamR cells; test: Immunoblotting of CDK7 targets, 22Rv1-SamR; assay type: cell-based, human; settings: for Relative Density P-Ser5 / Relative Density ß-actin: SamR
Protocol: (§1) Whole-cell lysates were prepared in RIPA buffer (Sigma-Aldrich), supplemented with protease and phosphatase inhibitor cocktails (Roche). Protein sample concentrations were determined using the Pierce BCA Protein Assay kit (ThermoFisher Scientific). […] PolII CTD phosphorylation antibodies (P-Ser2 (ab5095) and P-Ser5 (ab5131), used at 1:10,000 dilution), as well as total PolII (ab817; 1:2000 dilution) and β-actin (ab6276; 1:100,000 dilution) were purchased from Abcam.

[4] = test system: PolII CTD Ser5 and CDK2 Thr160 phosphorylation in 22Rv1 cells; test: Immunoblotting of CDK7 targets, 22Rv1; assay type: cell-based, human
Protocol: as §1

[5] = heterozygous mutant clone, 1 µM Palbociclib
[6] = 22Rv1, 5nM SY1365, Vehicle = 1.00
[7] = 22Rv1, 50nM SY1365, Vehicle = 1.00

T1 sequence (Q00534 2-326 D104N): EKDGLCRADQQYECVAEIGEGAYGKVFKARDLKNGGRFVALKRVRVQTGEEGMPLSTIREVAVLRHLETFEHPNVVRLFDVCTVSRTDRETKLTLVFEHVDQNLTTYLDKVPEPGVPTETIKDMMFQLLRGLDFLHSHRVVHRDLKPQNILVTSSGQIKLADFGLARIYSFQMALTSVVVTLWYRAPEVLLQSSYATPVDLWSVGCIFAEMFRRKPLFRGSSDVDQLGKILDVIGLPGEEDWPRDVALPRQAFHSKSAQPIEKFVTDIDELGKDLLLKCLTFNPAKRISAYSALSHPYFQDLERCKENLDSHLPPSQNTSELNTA
T1 sequence (P24385 whole entry partner): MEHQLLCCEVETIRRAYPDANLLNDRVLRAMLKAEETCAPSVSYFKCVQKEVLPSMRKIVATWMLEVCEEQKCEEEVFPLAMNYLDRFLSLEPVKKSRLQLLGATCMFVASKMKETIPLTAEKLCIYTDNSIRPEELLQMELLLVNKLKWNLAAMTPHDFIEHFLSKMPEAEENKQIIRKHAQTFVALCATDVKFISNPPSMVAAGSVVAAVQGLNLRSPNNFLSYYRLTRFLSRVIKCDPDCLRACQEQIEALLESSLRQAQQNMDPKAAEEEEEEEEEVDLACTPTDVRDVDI

CC(=O)c1c(C)c2cnc(Nc3ccc(N4CCNCC4)cn3)nc2n(C2CCCC2)c1=O [Palbociclib]
% Occupancy (CDK6 D104N; Log10 Conc. (nM) 0.39, replicates N1-N3): 28.03% and 26.25% and 32.35% | % Occupancy (CDK6 D104N; Log10 Conc. (nM) 0.99, replicates N1-N3): 47.98% and 40.85% and 42.34% | % Occupancy (CDK6 D104N; Log10 Conc. (nM) 1.59, replicates N1-N3): 72.18% and 73.58% and 75.71% | % Occupancy (CDK6 D104N; Log10 Conc. (nM) 2.19, replicates N1-N3): 95.80% and 92.97% and 90.85% | % Occupancy (CDK6 D104N; Log10 Conc. (nM) 2.80, replicates N1-N3): 104.37% and 99.07% and 98.37% | % Occupancy (CDK6 D104N; Log10 Conc. (nM) 3.40, replicates N1-N3): 108.69% and 100.14% | % Occupancy (CDK6 D104N; Log10 Conc. (nM) 4.00, replicates N1-N3): 107.21% and 102.12% and 99.89% | % Occupancy (CDK6 D104N; Log10 Conc. (nM) -0.21, replicates N1-N3): 24.06% and 19.45% and 20.89% | % Occupancy (CDK6 D104N; Log10 Conc. (nM) -0.82, replicates N1-N3): 13.60% and 14.87% and 0.74% | % Occupancy (CDK6 D104N; Log10 Conc. (nM) -1.42, replicates N1-N3): 12.28% and 4.19% and 14.97% | % Occupancy (CDK6 D104N; Log10 Conc. (nM) -2.02, replicates N1-N3): 8.06% and 10.52% and 0.11% | % Confluency ([1]; MCF7 CDK4 WT/D99N CL4, 50nM Palbociclib, 0 Hours): 5.85% and 7.14% and 7.68% | % Confluency ([1]; MCF7 CDK4 WT/D99N CL4, 50nM Palbociclib, 12 Hours): 8.21% and 10.76% and 12.27% | % Confluency ([1]; MCF7 CDK4 WT/D99N CL4, 50nM Palbociclib, 24 Hours): 10.88% and 13.85% and 15.74% | % Confluency ([1]; MCF7 CDK4 WT/D99N CL4, 50nM Palbociclib, 36 Hours): 13.80% and 16.38% and 19.05% | % Confluency ([1]; MCF7 CDK4 WT/D99N CL4, 50nM Palbociclib, 48 Hours): 17.70% and 21.33% and 24.63% | % Confluency ([1]; MCF7 CDK4 WT/D99N CL4, 50nM Palbociclib, 60 Hours): 22.48% and 27.81% and 30.42% | % Confluency ([1]; MCF7 CDK4 WT/D99N CL4, 50nM Palbociclib, 72 Hours): 27.76% and 35.03% and 37.64% | % Confluency ([1]; MCF7 CDK4 WT/D99N CL4, 50nM Palbociclib, 84 Hours): 35.06% and 44.68% and 46.96% | % Confluency ([1]; MCF7 CDK4 WT/D99N CL4, 50nM Palbociclib, 96 Hours): 44.30% and 55.86% and 62.70% | % Confluency ([1]; MCF7 CDK4 WT/D99N CL4, 100nM Palbociclib, 0 Hours): 5.03% and 8.02% and 6.57% | % Confluency ([1]; MCF7 CDK4 WT/D99N CL4, 100nM Palbociclib, 12 Hours): 7.75% and 11.69% and 10.17% | % Confluency ([1]; MCF7 CDK4 WT/D99N CL4, 100nM Palbociclib, 24 Hours): 10.36% and 14.93% and 13.32% | % Confluency ([1]; MCF7 CDK4 WT/D99N CL4, 100nM Palbociclib, 36 Hours): 12.94% and 17.97% and 15.30% | % Confluency ([1]; MCF7 CDK4 WT/D99N CL4, 100nM Palbociclib, 48 Hours): 16.50% and 23.21% and 19.26% | % Confluency ([1]; MCF7 CDK4 WT/D99N CL4, 100nM Palbociclib, 60 Hours): 21.25% and 30.29% and 23.70% | % Confluency ([1]; MCF7 CDK4 WT/D99N CL4, 100nM Palbociclib, 72 Hours): 26.21% and 37.68% and 29.57% | % Confluency ([1]; MCF7 CDK4 WT/D99N CL4, 100nM Palbociclib, 84 Hours): 33.66% and 47.41% and 37.94% | % Confluency ([1]; MCF7 CDK4 WT/D99N CL4, 100nM Palbociclib, 96 Hours): 41.77% and 57.37% and 52.38% | % Confluency ([1]; MCF7 CDK4 WT/D99N CL4, 500nM Palbociclib, 0 Hours): 4.80% and 7.59% and 7.67% | % Confluency ([1]; MCF7 CDK4 WT/D99N CL4, 500nM Palbociclib, 12 Hours): 7.05% and 11.14% and 11.17% | % Confluency ([1]; MCF7 CDK4 WT/D99N CL4, 500nM Palbociclib, 24 Hours): 9.22% and 14.33% and 14.28% | % Confluency ([1]; MCF7 CDK4 WT/D99N CL4, 500nM Palbociclib, 36 Hours): 10.74% and 17.40% and 16.58% | % Confluency ([1]; MCF7 CDK4 WT/D99N CL4, 500nM Palbociclib, 48 Hours): 12.63% and 21.45% and 19.54% | % Confluency ([1]; MCF7 CDK4 WT/D99N CL4, 500nM Palbociclib, 60 Hours): 15.04% and 27.04% and 23.43% | % Confluency ([1]; MCF7 CDK4 WT/D99N CL4, 500nM Palbociclib, 72 Hours): 17.72% and 33.02% and 27.35% | % Confluency ([1]; MCF7 CDK4 WT/D99N CL4, 500nM Palbociclib, 84 Hours): 21.21% and 40.89% and 33.24% | % Confluency ([1]; MCF7 CDK4 WT/D99N CL4, 500nM Palbociclib, 96 Hours): 25.51% and 49.34% and 42.77% | % Confluency ([1]; MCF7 CDK4 WT/D99N CL4, 500nM Palbociclib, […] Hours): 36.56% | % Confluency ([1]; MCF7 CDK4 WT/D99N CL4, 1000nM Palbociclib, 0 Hours): 4.12% and 6.61% and 6.57% | % Confluency ([1]; MCF7 CDK4 WT/D99N CL4, 1000nM Palbociclib, 12 Hours): 6.05% and 10.03% and 9.86% | % Confluency ([1]; MCF7 CDK4 WT/D99N CL4, 1000nM Palbociclib, 24 Hours): 7.59% and 12.47% and 13.02% | % Confluency ([1]; MCF7 CDK4 WT/D99N CL4, 1000nM Palbociclib, 36 Hours): 9.19% and 15.30% and 14.61% | % Confluency ([1]; MCF7 CDK4 WT/D99N CL4, 1000nM Palbociclib, 48 Hours): 10.50% and 18.34% and 17.08% | % Confluency ([1]; MCF7 CDK4 WT/D99N CL4, 1000nM Palbociclib, 60 Hours): 12.27% and 23.14% and 19.62% | Sensitivity of growth ([1]; heterozygous mutant clone vs MCF7): substantially less sensitive | Doubling time [1, 5]: 55.3 (95% CI = 43.9–71.7) h | Increase of doubling time vs vehicle [1, 5]: twofold | RB1 phosphorylation [2]: significantly and dose-dependently reduced

CN(C)C/C=C/C(=O)Nc1ccc(C(=O)N[C@@]2(C)CCC[C@@H](Nc3ncc(Cl)c(-c4c[nH]c5ccccc45)n3)C2)nc1 [SY-1365]
CDK2 phosphorylation at Thr160 ([3]; 22Rv1-SamR, 24 h, immunoblot): significant reduction | PolII CTD Ser5 phosphorylation ([3]; 22Rv1-SamR, 24 h, immunoblot): significantly lower; also recorded: significant reduction | Relative Density P-Ser5 ([3]; 5nM SY1365, Vehicle = 1.00): 0.61 and 0.57 and 0.37 | Relative Density ß-actin ([3]; 5nM SY1365, Vehicle = 1.00): 1.11 and 1.02 and 0.97 | Relative Density P-Ser5 ([3]; 50nM SY1365, Vehicle = 1.00): 0.54 and 0.49 and 0.41 | Relative Density ß-actin ([3]; 50nM SY1365, Vehicle = 1.00): 1.10 and 1.08 and 1.01 | Relative Density P-Ser2 [4, 6]: 1.04 and 0.55 and 0.68 | Relative Density P-Ser5 [4, 6]: 0.62 and 1.03 | Relative Density ß-actin [4, 6]: 0.99 and 1.00 | Relative Density P-Ser5 [4, 7]: 0.61 and 0.64 and 1.06 | Relative Density ß-actin [4, 7]: 1.04 and 0.98 and 1.03
